Measurements reported in article PMC7735735, “Store-Operated Calcium Entry as a Therapeutic Target in Acute Pancreatitis: Discovery and Development of Drug-Like SOCE Inhibitors” (Journal of Medicinal Chemistry, 2020).
“Also recorded” adds a separate entry of the source. Read-outs that look alike come from different tables or passages of the source. One block for each molecule: values may come before it.

Experiments:
[1] = test system: chemically induced AP; parameters: method as in PMID 31050811; settings: three different murine models; cited from earlier work
[2] = test system: cerulein-induced AP; parameters: method as in PMID 30347159; settings: rodents; cited from earlier work
[3] = test system: SOCE; parameters: method as in PMID 30347159; settings: cited from earlier work
[4] = test system: HEK cells; assay: HEK cell viability after 72 h at 50 μM with or without uridine (involvement of DHODH); settings: for cell viability / cytotoxicity at 50 μM, 72 h / reversal of cytotoxicity by uridine: 50 μM, 72 h; for reversal of cytotoxicity by uridine: uridine 100 μM
[5] = test system: SOCE; assay: SOCE inhibition in HEK cells by fluorescence microscopy (calcium imaging); assay type: cell-based, human; settings: for inhibition at 10 µM / inhibition at 3 µM: Homo sapiens; for inhibition at 10 µM: HEK293, HEK cells, negative value = increased Ca2+ entry vs control; for inhibition at 3 µM: HEK293, supplementary CSV, read-out: % SOCE Inhibition (3 µM); for AUC, peak amplitude, and slope of the Ca2+-rise: selected compounds
Description: With these two compounds in hand, two click reactions were performed and compounds 9 and 18 (Table 1), displaying the same substructures as the reference compound Synta66, were obtained with a yield of 31 and 60%, respectively. 9 and 18 were tested for activity on SOCE in HEK cells, a human embryonic kidney (HEK) cell line, by fluorescence microscopy, as described elsewhere.[16] After 600 s, Ca^2+ was added and intracellular levels were measured.
Screening, dose–response experiments, and calcium imaging experiments were performed in HEK cells (ATCC, Rock, ville, MD, USA), as already reported elsewhere.[16]

[6] = test system: SOCE; parameters: method as in PMID 29038464; settings: HEK cells; cited from earlier work
[7] = test system: ICRAC; parameters: method as in PMID 19648266; settings: cited from earlier work
[8] = test system: HEK cells
[9] = Thermodynamic aqueous solubility and solubility in in vivo vehicles; assay type: physicochemical
Description: Thermodynamic aqueous solubility was determined as follows: about 3 mg of the tested compound was weighed and dissolved in 3 mL of deionized water. After vigorous mixing by vortex followed by sonication for 5 min, the resulting supersaturated solution was shaken horizontally overnight at 25 °C. After filtration over a syringe filter (pore 0.22 μm, regenerate cellulose membrane), 100 μL of DMSO was added to 1 mL of the filtered solution. The resulting solution was further diluted in water (typically 1:10) before LC–UV analysis. Aqueous solubility was calculated comparing the filtrate peak area to those of the tested compound DMSO solutions. Solubility in aqueous media was also checked in the following vehicles at the target concentration of 6 mg/mL: saline + 10% DMSO, saline + 10% DMSO + 20% PEG400, saline + 5% ethanol.

[10] = PK analysis in mice; assay type: in vivo; settings: C57BL/6, mouse, plasma, 7 mg/kg
Description: To further characterize the compound, a PK analysis was performed in mice. Briefly, mice were injected with 34 (i.v., 7 mg/kg, once) and serial blood sampling was performed.
(§1) All animal experiments observe the regulations in Italy (D.M. 116192) as well as the EU regulations (O.J. of E.C. L 358/1 12/18/1986). Compound 34 was injected i.v. at a dose of 7 mg/kg in C57BL/6 mice. Blood was collected after 5, 15, 30, 60, 120, 240, 360 min and 24 h. Aliquots of plasma samples were analyzed as previously reported.[16] AP was induced in mice by i.p. injections of cerulein, as already reported elsewhere.[16]
In vivo PK evaluation of compound 34.
Table S6. PK parameters of single administration of compound 34 (e.v., 7 mg/kg, n=5)
Parameter Unit Value S.D.

[11] = In vitro metabolic stability in mouse liver microsomes; assay type: in vitro ADME; settings: MLMs, 50 μM substrate, 3 mM GSH trapping agent, HRMS
Description: Next, the in vitro metabolic stability of the five candidates (31, 34, 36, 38, and 40) was evaluated in mouse liver microsomes (MLMs) activated by NADPH by measuring the substrate residual after 1 h. For comparative purposes, Synta66 was incubated in the same conditions.
Phase I and II (glucuronidation) incubations were performed in MLMs (pooled male mouse CD-1, protein concentration: 20 mg/mL, purchased from Corning B.V. Life Sciences—Amsterdam, The Netherlands) using the procedure previously described[16] with the following modifications: 5 μM substrate concentration for the determination of the residual percentage and 50 μM for 34 metabolite characterization by HRMS; when metabolic activation was studied, 3 mM GSH trapping agent was added in the incubation mixture.

[12] = test system: cerulein-induced murine model of AP; assay: Cerulein-induced murine model of AP; assay type: in vivo, mouse; settings: 10 mg/kg i.p. 30 and 150 min after first cerulein injection; tissue collected at 5 h
Description: The PK profile of our candidate prompted us to investigate its efficacy in a cerulein-induced murine model of AP.[29]
as §1

[13] = intravenous, Table S6, single administration, e.v., n=5
[14] = iv, mice, i.v., once, read-out: half-life (t1/2) (converted)

SMILES: O=C(Nc1ccn(Cc2ccc(O)cc2C(F)(F)F)n1)c1c(F)cccc1F [GSK-7975A]
protection in murine models of chemically induced AP [1]: protective

SMILES: CCCC(C)OC(=O)c1cnn(-c2ccc(-n3cc(-c4cccc(C(=O)O)c4)nn3)cc2)c1C(F)(F)F (stereo not drawn) [Compound 3]
efficacy in cerulein-induced AP [2]: demonstrated efficacy; also recorded: significantly ameliorate cerulein-induced AP in rodents without signs of toxicity
IC50 [3]: 4.4 µM

SMILES: Cc1cccc(F)c1C(=O)Nc1cnc(-c2cc3c(cc2Cl)OC(F)(F)O3)cn1 [CM4620, reference compound]
protection in murine models of chemically induced AP [1]: protective
cell viability / cytotoxicity at 50 μM, 72 h [4]: cytotoxic
reversal of cytotoxicity by uridine [4]: not reverted by uridine

SMILES: O=C(O)c1cccc(C(=O)Nc2ccc(-c3ccc4c(c3)OCCO4)cc2)c1 [Compound 64, 3-((4-(2,3-Dihydrobenzo[b][1,4]dioxin-6-yl)phenyl)carbamoyl)benzoic Acid]
effect on SOCE, in words ([5]; HEK cells): significantly reduced activity compared to the parent compound
cell viability / cytotoxicity at 50 μM, 72 h [4]: significant cytotoxicity
reversal of cytotoxicity by uridine [4]: fully reverted by uridine

SMILES: C/C(O)=C(\C#N)C(=O)Nc1ccc(C(F)(F)F)cc1 [teriflunomide]
IC50 [6]: 4.3 ± 1 µM

SMILES: COc1ccc(OC)c(-c2ccc(-n3cc(-c4ccccn4)nn3)cc2)c1 [Compound 12, 2-(1-(2′,5′-Dimethoxy-[1,1′-biphenyl]-4-yl)-1H-1,2,3-triazol-4-yl)pyridine]
inhibition at 10 µM ([5]; 10 μM): 0%
inhibition at 3 µM ([5]; HEK cells): 0%

SMILES: COc1cc(OC)cc(-c2ccc(-n3cc(-c4cccc(C(=O)O)c4)nn3)cc2)c1 [Compound 36, 3-(1-(3′,5′-Dimethoxy-[1,1′-biphenyl]-4-yl)-1H-1,2,3-triazol-4-yl)benzoic Acid]
AUC, peak amplitude, and slope of the Ca2+-rise ([5]; HEK cells, Figure S1): induced a drop in the three parameters

SMILES: COc1ccc(OC)c(-c2ccc(NC(=O)c3ccncc3F)cc2)c1 [Synta66, reference compound]
AUC and peak amplitude of the Ca2+-rise vs control ([5]; HEK cells, 10 μM): significantly reduced AUC and peak amplitude
slope of the Ca2+-rise vs control ([5]; HEK cells, 10 μM): significant effect on the slope
inhibition at 10 µM ([5]; 10 μM): 90.8 ± 1.7%
inhibition at 3 µM ([5]; HEK cells): 90.8 ± 1.7%
IC50 [7]: 1.4 to 3 µM
cell viability / cytotoxicity at 50 μM, 72 h [4]: significant cytotoxicity

SMILES: O=C(O)c1cccc(-c2cn(-c3ccc(-c4cccc5c4OCCO5)cc3)nn2)c1 [Compound 35, 3-(1-(4-(2,3-Dihydrobenzo[b][1,4]dioxin-5-yl)phenyl)-1H-1,2,3-triazol-4-yl)benzoic Acid]
AUC, peak amplitude, and slope of the Ca2+-rise ([5]; HEK cells, Figure S1): induced a drop in the three parameters

SMILES: COc1ccc(OC)c(-c2ccc(-c3cn(-c4ccncc4)nn3)cc2)c1 [Compound 19, 4-(4-(2′,5′-Dimethoxy-[1,1′-biphenyl]-4-yl)-1H-1,2,3-triazol-1-yl)pyridine]
effect on SOCE, in words ([5]; HEK cells): not able to reliably inhibit SOCE

SMILES: Cc1c(-c2ccc(-c3ccccc3F)cc2)nc2ccc(F)cc2c1C(=O)O [brequinar]
cell viability / cytotoxicity at 50 μM, 72 h [8]: cytotoxic
reversal of cytotoxicity by uridine [8]: reverted by uridine addition

solubilization at 6 mg/mL in saline containing 10% DMSO + 20% PEG400 ([9]; nominal concentration 6 mg/mL, vehicle for in vivo administration): limpid solution
increase in aqueous solubility of 34 compared to 36 ([9]; sodium salts): 80 fold
solubility ([9]; thermodynamic, deionized water, 25 °C overnight, biphenyl triazoles as sodium salts, read-out: H2O solubility): 1.53 mg/mL
Cmax [10, 13]: 16.8 µg/mL
Tmax [10, 13]: 0.2 h
Cmax ([10]; iv, mice, once): 16.8 µg/mL
clearance at 24 h ([10]; iv, mice, i.v., once, read-out: clearance (Cl) (converted)): 0.5 L/h/kg
half-life [10, 14]: 3.21 h
half-life at 24 h [10, 14]: 3.2 h
SMILES: COc1cccc(-c2ccc(-n3cc(-c4cccc(C(=O)O)c4)nn3)cc2)c1OC [Compound 34, 3-(1-(2′,3′-Dimethoxy-[1,1′-biphenyl]-4-yl)-1H-1,2,3-triazol-4-yl)benzoic Acid]
AUC compared to the reference compound Synta66 ([5]; HEK cells, Figure S1): significantly reducing the AUC
AUC, peak amplitude, and slope of the Ca2+-rise ([5]; HEK cells, Figure S1): induced a drop in the three parameters
cytotoxicity in HEK cells up to 60 μM ([4]; up to 60 μM): no detectable cytotoxicity
formation of glutathione (GSH) adducts [11]: did not highlight the formation of glutathione (GSH) adducts
histological scores of pancreatic tissue (H&E), inflammation and edema [12]: significantly ameliorate the histological scores; also recorded: efficacy in a mouse model of cerulein-induced AP

SMILES: COc1ccc(OC)c(-c2ccc(-c3cn(-c4cccnc4)nn3)cc2)c1 [Compound 20, 3-(4-(2′,5′-Dimethoxy-[1,1′-biphenyl]-4-yl)-1H-1,2,3-triazol-1-yl)pyridine]
effect on SOCE, in words ([5]; HEK cells): not able to reliably inhibit SOCE

SMILES: O=C(O)c1cccc(NC(=O)c2ccc(-c3ccc4c(c3)OCCO4)cc2)c1 [Compound 69, 3-(4-(2,3-Dihydrobenzo[b][1,4]dioxin-6-yl)benzamido)benzoic Acid]
effect on SOCE, in words ([5]; HEK cells): significantly reduced activity compared to the parent compound
